Laboratory results reported in article PMC7048316, “Yeast filamentation signaling is connected to a specific substrate translocation mechanism of the Mep2 transceptor” (PLoS Genetics, 2020).

What was measured:
[1] = target: T1, Mep2 (ScMep2) (Saccharomyces cerevisiae, UniProt P41948); type: cell-based; conditions: 3 mM ammonium; pH 5.5; labelled compound
T1 construct: untagged full-length Mep2 in pOO2, cRNA-injected Xenopus oocytes; family adopts a trimeric fold

[2] = substrate: N; assay: cells, lysate or membranes; conditions: -100 mV (voltage-dependent), pH 5.5, NH4Cl

T1 sequence (P41948 whole entry): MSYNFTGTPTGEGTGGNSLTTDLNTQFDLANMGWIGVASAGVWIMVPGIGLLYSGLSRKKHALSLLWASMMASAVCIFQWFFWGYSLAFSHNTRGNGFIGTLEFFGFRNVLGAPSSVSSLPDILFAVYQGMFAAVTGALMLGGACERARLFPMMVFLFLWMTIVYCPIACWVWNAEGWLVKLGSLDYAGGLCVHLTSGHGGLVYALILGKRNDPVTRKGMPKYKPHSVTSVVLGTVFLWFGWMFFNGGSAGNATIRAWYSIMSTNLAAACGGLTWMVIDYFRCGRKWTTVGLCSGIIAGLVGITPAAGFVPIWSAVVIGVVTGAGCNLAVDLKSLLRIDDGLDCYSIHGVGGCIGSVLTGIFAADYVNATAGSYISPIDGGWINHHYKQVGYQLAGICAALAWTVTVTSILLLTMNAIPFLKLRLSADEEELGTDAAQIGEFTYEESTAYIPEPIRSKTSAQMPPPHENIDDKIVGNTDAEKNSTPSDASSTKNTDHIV

Molecule	15N-ammonium uptake into Xenopus oocytes, isotope ratio mass spectrometry [1]	Km [2] [µM]
N [ammonium]	Mep2 and its Mep2^S457D variant were functional in oocytes, enabling substrate transport	
Mep1 (ScMep1) (Saccharomyces cerevisiae S288C) (protein) MESRTTGPLTTETYDGPTVAFMILGAALVFFMVPGLGFLYSGLARRKSALALIWVVLMATLVGILQWYFWGYSLAFSKSAPNNKFIGNLDSFGFRNVYGKKFDEDAYPELAYATFQMMFSCVNLSIIAGATAERGRLLPHMVFLFILATIGYCPVTYWIWSPGGWAYQWGVLDWAGGGNIEILSAVSGFVYSWFLGKRNEKLLINFRPHNVSLVTLGTSILWFGWLLFNSASSLSPNLRSVYAFMNTCLSAITGGMTWCLLDYRSEKKWSTVGLCSGIISGLVAATPSSGCITLYGSLIQGIVAGVVCNFATKLKYYAKVDDAMDILAEHGVAGVIGLIFNALFGADWVIGMDGTTEHEGGWVTHNYKQMYKQIAYIAASIGYTAAVTAIICFVLGYIPGMRLRISEEAEEAGMDEDQIGEFAYDYVEVRRDYYLWGVDEDSQRSDVNHRVNNAHLAAERSSSGTNSSSDGNGEMIQSEKILPIHQEDPANR		258
